Laboratory results published in US8367075B2, “Synergistic combination and method thereof” (Indian Institute of Science, priority 2010, dated 2013).
“Also recorded” adds a separate entry of the source. Where two headings read alike, the source gives them in different places.

Experiments:
[1] = test system: Sp2/0 myeloma
Protocol: BALB/c male mice, aged 6-8 weeks and weighing ˜18-25 g, are procured from the Central Animal Facility, Indian Institute of Science, Bangalore. All mice received care according to institutional guidelines and are maintained under controlled conditions and fed with a standard diet.
(§1) Sp2/0 cells, a myeloma cell line, is grown in T175 flasks in IMDM complete medium supplemented with 10% fetal bovine serum, 2 mM L-glutamine, 100 U/ml penicillin, 100 μg/ml streptomycin, 10% nonessential amino acids, 10% HEPES, 10% sodium pyruvate, 50 μM 2-ME, 10 μg/ml gentamycin in a humidified atmosphere of 5% CO2 at 37° C.
An experimental syngeneic tumor model using the myeloma, Sp2/0 in BALB/c mice is studied. […] Different amounts of cells are washed and injected s.c. to establish the cell numbers that need to be injected to reproducibly display solid tumors within two weeks. Mice are sacrificed once the tumors reach a large size to avoid distress. Tumor volume is monitored on the mentioned days and calculated with the formula, V=a×b^2/2, where a is the longest and b is perpendicular to it, are measured on the surface of the tumor with vernier calipers.
BALB/c mice (5 per group) of 6 to 8 weeks of age are subcutaneously injected with Sp2/0 myeloma cells (˜10×10^6 cells/mouse). Thereafter, mice are intradermally injected with Mycobacterium indicus pranii (˜5×10^8) either 1 day prior to or 3 or 6 days post-inoculation of tumor cells. Tumor volume is estimated on 9th, 12th and 14th day of tumor inoculation. Vehicle alone (0.1 ml of PBS) is used as control and intradermally injected 3 days after administration of cells.
Next, the optimum dose of Mycobacterium indicus pranii required for reducing the tumor size and delaying the appearance of tumors is titrated. BALB/c mice (5 per group) of 6 to 8 weeks of age are subcutaneously injected with Sp2/0 Myeloma cells (˜10×10^6 cells/mouse). Mice are intradermally injected with different doses of Mycobacterium indicus pranii (5×10^3, 5×10^5, 5×10^7 and 5×10^8) 3 days post-inoculation of tumor cells. Tumor volume is estimated on the 9th, 12th and 14th day of tumor inoculation. Vehicle alone (0.1 ml of PBS) is used as control and intradermally injected 3 days after administration of cells.
BALB/c mice are intraperitoneally injected with three different doses of Cyclophosphamide, Indomethacin and RU486 four days after implantation of Sp2/0 cells. The doses of Cyclophosphamide, Indomethacin and RU486 are chosen based on that administered to mice and the standardization of the same in the Sp2/0 tumor model is depicted in FIG. 4. BALB/c mice (5 per group) of 6 to 8 weeks of age are subcutaneously injected with Sp2/0 myeloma cells (˜10×10^6 cells/mouse). The mice are then intraperitoneally injected with different doses of either Cyclophosphamide (5, 15 or 100 mg/Kg body weight/mouse) or Indomethacin (0.1, 1 or 10 mg/Kg body weight/mouse) or RU486 (0.1, 1 or 5 mg/Kg body weight/mouse), 4 days post-inoculation of tumor cells. Tumor volume is estimated on the 9th, 12th and 14th day after tumor inoculation. Vehicle alone (0.5 ml of PBS) is used as control and intradermally injected 4 days after administration of cells.
BALB/c mice (5 per group) of 6 to 8 weeks of age are subcutaneously injected with Sp2/0 myeloma cells (˜10×10^6 cells/mouse). Four groups of mice are intradermally injected with Mycobacterium indicus pranii (˜5×10^8) 3 days post-inoculation of tumor cells. Three groups of Mycobacterium indicus pranii injected mice are intraperitoneally injected with Cyclophosphamide (15 mg/Kg b. wt.), Indomethacin (1 mg/Kg b. wt.) and RU486 (1 mg/Kg b. wt.) on the next day.

[2] = test system: EL4 thymoma; experiment: EL4 thymoma subcutaneous tumor model in C57BL/6 mice (tumor volume); assay type: in vivo
Protocol: as §1, with “EL4” for “Sp2/0”, “thymoma” for “myeloma”, “T75” for “T175”, “RPMI” for “IMDM”
C57BL/6 mice (5 per group) of 6 to 8 weeks of age are injected subcutaneously with EL4 […] cells (˜0.5×10^6 cells/mouse). Two groups of mice are intradermally injected with Mycobacterium indicus pranii (˜5×10^8) either 3 or 7 days post-inoculation of tumor cells. Two groups of mice one injected previously with MIP and another uninjected are intraperitoneally injected with 15 mg/Kg body weight of Cyclophosphamide on the next day. Tumor volume is estimated in the three groups of mice on the 11th, 14th and 17th day after tumor inoculation. This has been depicted in FIG. 13. Vehicle alone (0.1 ml of PBS) is used as control and intradermally injected 7 days after administration of cells.

[3] = test system: B-cell malignancies such as Multiple myeloma, Solitary plasmacytoma and Plasma cell leukemia; experiment: Mice with B-cell malignancies treated with MIP, Cyclophosphamide or both (Conclusion); assay type: in vivo; settings: MIP ~5×10^8 intradermal and/or Cyclophosphamide 15 mg/Kg i.p. next day; compared with initial tumor size
Protocol: The synergistic combination of Cyclophosphamide and Mycobacterium indicus pranii is administered to mice detected with B-cell malignancies such as Multiple myeloma, Solitary plasmacytoma and Plasma cell leukemia. The experiment is conducted mainly on mice which have been detected with said myelomas. The mice are initially examined and the tumor growth and size approximately determined. The mice are then divided into groups so that 5 mice form a group. One mice group is subjected to only Mycobacterium indicus pranii treatment and another group to only Cyclophosphamide treatment. The third group of mice is subjected to a treatment of Mycobacterium indicus pranii along with Cyclophosphamide. This third group of mice are initially intradermally injected with Mycobacterium indicus pranii at a concentration range of ˜5×10^8 cells. […] The mice are then re-examined and the tumor volume estimated on different days after Mycobacterium indicus pranii administration.

Row | SMILES | tumor progression ([1]; 5 mg/Kg body weight i.p. day 4, alone) | tumor volume / tumor progression ([1]; 15 mg/Kg b. wt. i.p. day 4, alone) | tumor volume ([1]; 15 mg/Kg b. wt. i.p. day 8, alone) | toxicity to mice ([1]; 50 mg/Kg b. wt. i.p.) | tumor volume ([1]; 50 mg/Kg b. wt. i.p. day 4, alone) | tumor volume ([1]; 50 mg/kg i.p. day 8, alone) | effect on the mice (toxicity) ([1]; 100 mg/Kg body weight i.p. day 4) | tumor progression ([1]; 100 mg/Kg body weight i.p. day 4, alone) | tumor volume ([1]; 1, 5 and 15 mg/Kg b. wt. i.p. day 8, alone) | tumor volume ([1]; 1 and 5 mg/Kg b. wt. i.p. day 4, alone) | tumor volume ([1]; Cyclophosphamide alone on the same day as MIP (day 3), one day prior or one day after) | tumor reduction ([2]; 15 mg/Kg body weight i.p. day 4 or day 8, alone) | tumor size ([2]; 15 mg/Kg body weight i.p. on day 8, alone, vs PBS) | tumor size/volume [3] | tumor volume ([1]; 0.1, 1 or 10 mg/Kg body weight i.p. day 4, alone, even at the highest dose) | tumor volume ([1]; MIP ~5×10^8 intradermal day 3 plus drug i.p. day 4 (Cyclophosphamide 15, Indomethacin 1 or RU486 1 mg/Kg b. wt.))
1 | O=P1(N(CCCl)CCCl)NCCCO1 (stereo not shown) [Cyclophosphamide] | not able to reduce tumor progression | not able to sufficiently prevent tumor progression; also recorded: showed some reduction in tumor volume | showed some reduction in tumor volume; also recorded: unable to induce any effect on tumor reduction | toxic to mice | effective | significant tumor reduction | reduced body weight and hair loss | able to prevent tumor progression to a considerable extent | did not significantly reduce tumor volume | unable to reduce tumor volume | had no effect on tumor volume | unable to induce any effect on tumor reduction | greater than observed with PBS | failed to elicit a similar tumor size reduction |  | 
2 | COc1ccc2c(c1)c(CC(=O)O)c(C)n2C(=O)c1ccc(Cl)cc1 [Indomethacin] |  |  |  |  |  |  |  |  |  |  |  |  |  |  | did not show any significant reduction in tumor volume | seemed to reverse the beneficial effects observed with Mycobacterium indicus pranii
